From US8476005B2, “Microfluidic embedded polymer NEMS force sensors” (California Institute of Technology, priority 2008, dated 2013) come the findings set out here.

For assay [1], the system named is individual fibroblasts (NIG-3T3). The assay can be described thus: Single-cell force response to a perturbing agent, measured with polymer NEMS force sensor. The format is cell-based. The protocol:
FIGS. 2a-2i illustrate NEMS-enabled single-cell force measurements with high temporal and force resolution. FIGS. 2a-2b provide optical images showing a microfluidics encapsulated force sensor, and FIG. 2c provides an electron micrograph thereof. […] The force data was acquired with a force resolution of 200 pN and a time resolution of 100 ms—25× and 300×, respectively, better than prior state of the art. FIGS. 2f-2h provide plots that show force signatures of two molecular-mechanical processes: small force oscillations, roughly 400 pN peak-to-peak, with a frequency that is monotonically dependent on the force being exerted by the lamellipodium shown in FIG. 2f, with FIG. 2g illustrating the linearity of frequency dependence.
NEMS force sensors can be used in phenotypic screening. […] Cells can then be exposed to one or more potential reagents, such as a pharmaceutical reagent, such as a drug, introduced in a carefully controlled manner using the integrated microfluidics, and the effects of the reagent(s) on the cells, such as the force exerted by the cells, is monitored. […]
The reagent can cause the cell to change in its physiology, such as conformation and/or structure, or change its force response to the reagent. […] The lengthening of the wire can then be detected. […]

Assay [2] concerns cells. The assay can be described thus: Surface chemistry Petri dish experiments: cell adherence and spreading on treated surface. The format is cell-based. Conditions: surface treated with this agent only; polymer surface with gold pads. The protocol:
FIGS. 3a-3d show results from surface chemistry Petri dish experiments. […] FIG. 3c-3d show results from complete surface chemistry process (SAM, Pluronics and fibronectin): cells are well spread on the gold and absent from the polymer A force sensor comprising a polymer surface with gold pads was used. The cells were to be attached to the pads and not to the polymer. At the beginning, both the pad and the polymer surfaces were hydrophobic, and water contact angle was about 80° on both. A self assembled monolayer was applied to the gold pads using thiol based chemistry. […] Monolayers were deposited from ethanol solutions […]. The monolayers left the gold surface hydrophilic, and water contact angle was about 25°. The polymer regions were coated with Pluronics […]). The surfaces were treated to Pluronics diluted in PBS (phosphate buffer solution), 0.02% to 1% by weight for 20-80 min. […] Pluronics left the surface hydrophilic. The gold regions were coated with Fibronectin. The surfaces were treated with fibronectin diluted in PBS, 5 ug/mL to 50 ug/mL for 20 min-4 hrs. […] FIGS. 3(c) and 3(d) show results from complete surface chemistry process (SAM, Pluronics and fibronectin), wherein cells were well spread on the gold and absent from the polymer. Thus, modifying surface chemistry allowed control of the cell adherence and/or spreading.

In the case of `C=C1[C@@H](C)[C@H]2[C@H](Cc3ccccc3)NC(=O)[C@]23[C@H](OC(C)=O)/C=C/[C@@](C)(O)C(=O)[C@@H](C)C/C=C/[C@H]3[C@@H]1O` [cytochalasin D, Cytochalasin D], the “large, stable, quantized force steps” value in assay [1] (cell's cytoskeleton perturbed with cytochalasin D and allowed to recover in growth media) is given as around 1 nN. Also, in assay [1] (lamellipodium perturbed with cytochalasin D and recovering in growth media, frequency monotonically dependent on force exerted), the “small force oscillations, peak-to-peak” value was “roughly 400 pN”.
As to fibronectin, in assay [2], the “cell attachment and spreading on surface” value is listed as “cells were spread everywhere”.
